From paper PMC7616463, “Peptidic boronic acid Plasmodium falciparum SUB1 inhibitors with improved selectivity over human proteasome” (Journal of medicinal chemistry, 2024)

Columns and labels:
[1] = molecular target: T1, human 20S proteasome (H20S), chymotrypsin-like β5 activity (Homo sapiens, UniProt P20618+P28074); assay: Human 20S proteasome kinetic assay (chymotrypsin-like β5 activity); type: biochemical; settings: purified human 20S proteasome, β5 activity, substrate LLVY-R110, fluorescence; duplicate; read-out: IC50, nM H20S inhibition
T1 construct: variant as stated: H20S
Description: The fluorescent Proteasome substrate LLVY-R110 (ex: 490 nm, Em:525 nm) (#MAK172, Sigma-Aldrich) was used to measure the chymotrypsin-like activity (β5) of the human 20S proteasome and was prepared according to the activity assay kit instructions. Cleavage of this peptide generated intense green fluorescence due to the R110 group and was monitored at 520-530 nm with excitation at 480-500 nm. The purified human 20S proteasome (BML-PW8720-0050, EnzoSciences), stored at 1mg/ml in 20 mM Tris-HCl pH 7.2, 1mM EDTA, 1mM DTT 1mM NaN3, 50% glycerol was diluted in TRIS-buffered saline (TBS, pH 7.4) to an intermediate concentration of 0.44 μM. […] The reactions were performed in white 96-well fluorescent microtiter-plate format (Nunc). The Substrate solution was added first (100 μl), followed by 1 μl of the inhibitor (50 μM intermediate stock) and 1 μl of the H20S proteasome at 0.44 μM. The IC50s were determined for a selection of potent PfSUB1 inhibitors. After sequential dilution of the inhibitors in 100% DMSO, 1 μl of each dilution was used in a 100 μl reaction containing the fluorescent substrate. The reaction was initiated by the addition of 1 μl of the 20S proteasome intermediate stock solution. The fluorescence increase was monitored using a SpectraMax M5e plate reader and SoftMax Pro-6.3 software Measure activity on a plate reader (ex: 490 nm, Em: 525 nm) with the photomultiplier tube (PMT) set to medium with readings every 3 min for one hour. All measurements were done in duplicate. The progress curves were plotted within GraphPad Prism 9.5.0.

[2] = molecular target: T2, recombinant PfSUB1 (rPfSUB1) (Plasmodium falciparum, UniProt Q8I0V0); assay: PfSUB1 enzyme assay (recombinant PfSUB1, fluorogenic peptide substrate); type: biochemical; settings: for IC50: rPfSUB1, substrate SERA4st1F-6R12 0.1 μM, 5 min preincubation, pH 8.2, fluorescence, duplicate, read-out: IC50, nM PfSUB1 inhibition; for inhibition of rPfSUB1 activity at 1 μM: 1 μM final concentration, typical of duplicate assays
T2 construct: made in house
Description: The proteolytic activity of rPfSUB1 was monitored by the cleavage of the fluorogenic peptidic substrate SERA4st1F-6R12 (Ac-[…]-OH) and has been described previously.[28] Briefly, chymotrypsin treated rPfSUB1 (expressed and purified as described before […] was stored at −80 °C as a 228 U/mL stock in 20 mM Tris−HCl pH 8.2, 150 mM NaCl, 10% glycerol, and diluted for use (1:500) in reaction buffer (20 mM Tris−HCl pH 8.2, 150 mM NaCl, 12 mM CaCl2, 25 mM CHAPS). Peptidic boronic acid inhibitors were dissolved in 100% DMSO at 20 mM, then further diluted in DMSO to generate stock solutions ranging from 500 to 0.01 μM and then used diluted 1:100 in the enzyme reactions. All reactions were performed in wells of white 96-well microwell plates (Nunc); 50 μL diluted rPfSUB1 was preincubated for 5 min with 1 μL each of the serially diluted boronic acid inhibitors, followed by addition of 50 μL substrate solution (0.1 μM final). Subsequent fluorescence increase was continuously monitored using a SpectraMax M5e plate reader and SoftMax Pro-6.3 software, with readings taken every 3 min for 60 min using excitation and emission values of 552 and 580 nm, respectively. […] All experiments were performed in duplicate.

T2 sequence (Q8I0V0 218-688): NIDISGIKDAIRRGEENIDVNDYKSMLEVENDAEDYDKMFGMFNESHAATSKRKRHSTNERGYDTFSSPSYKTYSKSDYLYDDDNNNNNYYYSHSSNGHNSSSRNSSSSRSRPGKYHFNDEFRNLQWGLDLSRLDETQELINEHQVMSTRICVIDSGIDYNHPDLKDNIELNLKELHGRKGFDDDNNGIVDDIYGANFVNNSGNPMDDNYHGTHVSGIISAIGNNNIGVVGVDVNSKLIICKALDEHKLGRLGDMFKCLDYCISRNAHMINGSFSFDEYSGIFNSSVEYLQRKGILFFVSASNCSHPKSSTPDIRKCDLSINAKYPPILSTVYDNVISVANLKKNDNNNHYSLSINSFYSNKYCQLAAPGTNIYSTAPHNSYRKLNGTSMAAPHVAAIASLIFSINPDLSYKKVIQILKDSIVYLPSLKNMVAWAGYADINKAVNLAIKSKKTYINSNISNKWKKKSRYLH

Molecule	IC50 [2] [nM]	also measured
CC(=O)N[C@H](C(=O)N[C@H](C(=O)NCC(=O)N[C@@H](C)B(O)O)[C@@H](C)O)C1CCCC1 [1b]		IC50 [1]: 35.4 ± 1.7 nM
CC(=O)N[C@H](C(=O)N[C@H](C(=O)NCC(=O)N[C@@H](C)B(O)O)C(C)(C)C)C1CCCC1 [2a, ((2R,8S,11S)-8-(tert-butyl)-11-cyclopentyl-4,7,10,13-tetraoxo-3,6,9,12-tetraazatetradecan-2-yl)boronic acid]	2.1 ± 0.1	
CC(=O)N[C@H](C(=O)N[C@H](C(=O)NCC(=O)N[C@@H](C)B(O)O)c1ccccc1)C1CCCC1 [2b, ((2R,8S,11S)-11-cyclopentyl-4,7,10,13-tetraoxo-8-phenyl-3,6,9,12-tetraazatetradecan-2-yl)boronic acid]	2.8 ± 0.1	
CC(=O)N[C@H](C(=O)N[C@@H](CC1CCCC1)C(=O)NCC(=O)N[C@@H](C)B(O)O)C1CCCC1 [2c, ((2R,8S,11S)-11-cyclopentyl-8-(cyclopentylmethyl)-4,7,10,13-tetraoxo-3,6,9,12-tetra-azatetradecan-2-yl)boronic acid]	7.5 ± 0.8	
CC(=O)N[C@H](C(=O)N[C@@H](CC1CCCCC1)C(=O)NCC(=O)N[C@@H](C)B(O)O)C1CCCC1 [2d, ((2R,8S,11S)-8-(cyclohexylmethyl)-11-cyclopentyl-4,7,10,13-tetraoxo-3,6,9,12-tetra-azatetradecan-2-yl)boronic acid]	6.7 ± 0.3	
CC(=O)N[C@H](C(=O)N[C@@H](CC(C)(C)C)C(=O)NCC(=O)N[C@@H](C)B(O)O)C1CCCC1 [2e, ((2R,8S,11S)-11-cyclopentyl-8-neopentyl-4,7,10,13-tetraoxo-3,6,9,12-tetraazatetra-decan-2-yl)boronic acid]	43.5 ± 2.7	fold decreased PfSUB1 potency compared to homologue 2a ([2]; rPfSUB1 IC50 vs 2a): ~ 20 fold
CC[C@H](C)[C@H](NC(=O)[C@@H](NC(C)=O)C1CCCC1)C(=O)NCC(=O)N[C@@H](C)B(O)O [2f, ((2R,8S,11S)-8-((S)-sec-butyl)-11-cyclopentyl-4,7,10,13-tetraoxo-3,6,9,12-tetraaza-tetradecan-2-yl)boronic acid]	5.4 ± 0.1	
CC(=O)N[C@H](C(=O)N[C@@H](CC(C)C)C(=O)NCC(=O)N[C@@H](C)B(O)O)C1CCCC1 [2g, ((2R,8S,11S)-11-cyclopentyl-8-isobutyl-4,7,10,13-tetraoxo-3,6,9,12-tetraazatetra-decan-2-yl)boronic acid]	7.8 ± 0.1	
CC(=O)N[C@H](C(=O)N[C@@H](Cc1ccccc1)C(=O)NCC(=O)N[C@@H](C)B(O)O)C1CCCC1 [2h, ((2R,8S,11S)-8-benzyl-11-cyclopentyl-4,7,10,13-tetraoxo-3,6,9,12-tetraazatetradecan-2-yl)boronic acid]	6.9 ± 2.6	
CC[C@H](C)[C@H](NC(=O)[C@@H](NC(=O)c1ccc2ccccc2n1)C1CCCC1)C(=O)NCC(=O)N[C@@H](C)B(O)O [3a, ((3S,6S,12R)-6-((S)-sec-butyl)-3-cyclopentyl-1,4,7,10-tetraoxo-1-(quinolin-2-yl)-2,5,8,11-tetraazatridecan-12-yl)boronic acid]	9.5 ± 0.6	IC50 [1]: 6 ± 0.5 nM
CC[C@H](C)[C@H](NC(=O)[C@@H](NC(=O)c1cccc(-c2ccccc2)n1)C1CCCC1)C(=O)NCC(=O)N[C@@H](C)B(O)O [3b, ((3S,6S,12R)-6-((S)-sec-butyl)-3-cyclopentyl-1,4,7,10-tetraoxo-1-(6-phenylpyridin-2-yl)-2,5,8,11-tetraazatridecan-12-yl)boronic acid]	9.3 ± 0.2	IC50 [1]: 7 ± 0.1 nM
CC[C@H](C)[C@H](NC(=O)[C@@H](NC(=O)c1cc(C)cc(C)c1)C1CCCC1)C(=O)NCC(=O)N[C@@H](C)B(O)O [3c, ((3S,6S,12R)-6-((S)-sec-butyl)-3-cyclopentyl-1-(3,5-dimethylphenyl)-1,4,7,10-tetra-oxo-2,5,8,11-tetraazatridecan-12-yl)boronic acid]	6.9 ± 0.3	
CC[C@H](C)[C@H](NC(=O)[C@@H](NC(=O)C(C)C)C1CCCC1)C(=O)NCC(=O)N[C@@H](C)B(O)O [3e, ((2R,8S,11S)-8-((S)-sec-butyl)-11-cyclopentyl-14-methyl-4,7,10,13-tetraoxo-3,6,9,12-tetraazapentadecan-2-yl)boronic acid]	3.9 ± 0.3	
CC[C@H](C)[C@H](NC(=O)[C@@H](NC(=O)C(C)(C)C)C1CCCC1)C(=O)NCC(=O)N[C@@H](C)B(O)O [3f, ((2R,8S,11S)-8-((S)-sec-butyl)-11-cyclopentyl-14,14-dimethyl-4,7,10,13-tetraoxo-3,6,9,12-tetraazapentadecan-2-yl)boronic acid]	3.9 ± 0.3	
CC[C@H](C)[C@H](NC(=O)[C@@H](NC(=O)C1CCC1)C1CCCC1)C(=O)NCC(=O)N[C@@H](C)B(O)O [3g, ((3S,6S,12R)-6-((S)-sec-butyl)-1-cyclobutyl-3-cyclopentyl-1,4,7,10-tetraoxo-2,5,8,11-tetraazatridecan-12-yl)boronic acid]	2 ± 0.1	
CC[C@H](C)[C@H](NC(=O)[C@@H](NS(=O)(=O)c1nccs1)C1CCCC1)C(=O)NCC(=O)N[C@@H](C)B(O)O [3h, ((R)-1-(2-((2S,3S)-2-((S)-2-cyclopentyl-2-(thiazole-2-sulfonamido)acetamido)-3-methylpentanamido)acetamido)ethyl)boronic acid]	3.4 ± 0.3	
CC[C@H](C)[C@H](NC(=O)[C@@H](NCc1ccccc1)C1CCCC1)C(=O)NCC(=O)N[C@@H](C)B(O)O [3i, ((3S,6S,12R)-6-((S)-sec-butyl)-3-cyclopentyl-4,7,10-trioxo-1-phenyl-2,5,8,11-tetra-azatridecan-12-yl)boronic acid]	23.2 ± 0.3	
CC[C@H](C)[C@H](NC(=O)[C@@H](NCc1ccccn1)C1CCCC1)C(=O)NCC(=O)N[C@@H](C)B(O)O [3j, ((3S,6S,12R)-6-((S)-sec-butyl)-3-cyclopentyl-4,7,10-trioxo-1-(pyridin-2-yl)-2,5,8,11-tetraazatridecan-12-yl)boronic acid]	71 ± 6.8	
CC[C@H](C)[C@H](NC(=O)[C@@H](NC(=O)c1ccc2ccccc2n1)C1CCCC1)C(=O)NCC(=O)N[C@H]1CCC(=O)OB1O [4a, N-((S)-1-cyclopentyl-2-(((2S,3S)-1-((2-(((R)-2-hydroxy-6-oxo-1,2-oxaborinan-3-yl)amino)-2-oxoethyl)amino)-3-methyl-1-oxopentan-2-yl)amino)-2-oxoethyl) quinoline-2-carboxamide]	36.1 ± 2.4	IC50 [1]: 410 ± 5 nM
CC(C)C[C@H](NC(=O)[C@H](Cc1ccccc1)NC(=O)c1cnccn1)B(O)O [5a, bortezomib, reference compound]		inhibition of rPfSUB1 activity at 1 μM [2]: Non inhibitory^b; inhibition of rPfSUB1 activity at 1 μM ([2]; listed as bortezomib): lack of inhibition
CC(C)C[C@H](NC(=O)[C@H](CCc1ccccc1)NC(=O)CN1CCOCC1)C(=O)N[C@@H](Cc1ccccc1)C(=O)N[C@@H](CC(C)C)C(=O)[C@@]1(C)CO1 [carfilzomib, reference compound]		inhibition of rPfSUB1 activity at 1 μM [2]: lack of inhibition
CC(C)C[C@H](NC(=O)CNC(=O)c1cc(Cl)ccc1Cl)B(O)O [ixazomib, reference compound]		inhibition of rPfSUB1 activity at 1 μM [2]: lack of inhibition
((3S,6S,12R)-6-((S)-sec-butyl)-3-cyclopentyl-1-(3,5-dimethylphenyl)-1,4,7,10-tetra-oxo-2,5,8,11-tetraazatridecan-12-yl)boronic acid [3d]	3.2 ± 0.1	
